From US20250152602A1, “MODULATION OF AVERSIVE AND SALT TASTES” (California Institute of Technology, priority 2023, published 2025)
No end group written: not given here.

What was measured:
SFO/OVLT^Ptger3 neurons = test: Chemogenetic inhibition (AAV-DIO-hM4Di + CNO) of LT^Ptger3 neurons, 30-min consumption assay; assay type: in vivo, mice
Method: Surgery procedures were performed according to methods known in the art. Briefly, ketamine (1 mg/ml) and xylazine (10 mg/ml) in saline were injected intraperitoneally at a dose of 10 ml per kg body weight (BW) for anaesthesia. Ketoprofen was injected subcutaneously at a dose of 5 ml per kg BW. Surgery was performed with a stereotaxic apparatus (Narishige, SR-5M-HT) on a heating pad at 37° C. Virus was delivered with a microprocessor-controlled injection system (World Precision Instruments, Nanolitre 2000) at 100 nl/min. The following coordinates were used: for pre-LC: anterior-posterior (AP), 9,000, medial-lateral (ML), 1,000, ventral-dorsal (VD), 3,800; for SFO: AP, 4,000, ML, 0, VD, 2,500; for OVLT: AP, 2,475, ML, 0, VD, 4,750; for dorsal part of the NAc medial shell: AP, 2,100, ML, 700, VD, 4,000. For optogenetic experiments, virus was delivered unilaterally at a volume of 120-200 nl. Implants were made by gluing a 200-μm fibre bundle (Thorlabs, FT200EMT) to a ceramic ferrule (Thorlabs, CF230-10) with epoxy. The fibre implant was placed 200 μm above the virus injection site. For fiber photometry experiments, virus was delivered at a volume of 150-200 nl (calcium measurement) or 500 nl (dopamine measurement) per region. A 400-μm fiber bundle (Thorlabs, FT400UMT) was used instead. For chemogenetic inhibition experiments, virus was delivered at 180-200 nl per region. For ablation experiments, virus was delivered at 200-250 nl per region. For local knockdown experiments, virus was delivered at 150-200 nl per region. At the end of experiments, all animals were euthanized for histological examination.
For 30-min access assay, mice were presented with 1 bottle for 30 min and consumption was measured.
For chemogenetic experiments, clozapine N-oxide (CNO) was administered intraperitoneally at doses of 10 mg per kg BW for inhibition or 1 mg per kg BW for activation 20 min before the consumption trial started. Pure water instead of saline was used as vehicle to avoid sodium repletion.

[1] = test system: dopamine release in the nucleus accumbens (NAc); test: Dopamine release in the NAc (dLight1.3b fiber photometry) during high-salt consumption; assay type: in vivo, mice
Method: Dopamine measurement: Mice were freely moving in the chamber with gustometer. Bulk fluorescence signals were collected with a fiber photometry setting as described with the light of 405 nm and 490 nm. The ΔF/F was calculated as (raw 490-nm signal−fitted 405-nm signal)/(fitted 405-nm signal). Mice were induced with osmotic thirst 10-15 min, or sodium depletion 24 hr before the access of 500 mM NaCl. For wild-type mice, under PGE2 activation condition, mice were injected PGE2 at a dose of 1 mg per kg BW subcutaneously 1 hr before the shutter open. For Ptger3cre mice, mice were injected with either CNO or vehicle 20 min before the shutter opened. Lick number was recorded simultaneously with the fluorescence signal collection. The first lick bout was identified with the lick rate more than 3.5 and lick number more than 5, with less than 1-sec interval to the subsequent lick. If no lick bout was detectable (observed with osmotic thirst), any first lick event was included into the data. All baseline signals were calculated by averaging signals between 10-20 sec prior to the first lick. Response amplitude (normalized ΔF/F) was calculated by subtracting the baseline ΔF/F from the mean ΔF/F between 0 and 10 sec after the lick initiated.

SFO^Ptger3 neurons [2] = test: Fiber photometry calcium recording from SFO^Ptger3 neurons (GCaMP7s); assay type: in vivo, mice; conditions: for calcium response of SFO^Ptger3 neurons to control stimuli (normalized ΔF/F): i.p., mannitol 2 M, 10 ml per kg BW, ghrelin 10 μg, LiCl 0.15 M, 15 ml per kg BW
Method: Calcium measurement from SFO^Ptger3 neurons: Mice were headfixed to eliminate the interference from movement. Photometry recording was performed using a commercial photometry system (Neurophotometrics, FP3002). Two LED of different wavelength (470 nm and 415 nm) were bandpass filtered and a patch cord (0.48 NA, Doric lenses) was attached to the photometry system via a 20× objective. The sampling rate was fixed at 40 Hz. Data were acquired with Bonsai (Neurophotometrics) by drawing a region of interest and calculating the mean pixel value, and then were exported to MATLAB for further analysis. The isosbestic signal (415 nm) was fit with a biexponential model and was then linearly scaled to the calcium signal (470 nm). The ΔF/F was calculated as (raw 470-nm signal−fitted 415-nm signal)/(fitted 415-nm signal). For all sessions, stimulus time was recorded through a customized TTL button. During PGE2 activation experiment (FIG. 7C), mice were given PGE2 at a dose of 1 mg per kg BW or DMSO in 100 μl PBS subcutaneously. During other internal-state treatments, mice were exposed to the following stimuli via intraperitoneal injection: 2M mannitol (10 ml per kg BW); […] of ghrelin (in 100 μl PBS), and 0.15M LiCl (15 ml per kg BW). All analysis used the average of 5 min prior to the stimulus as a baseline mean. Normalized ΔF/F was calculated by subtracting the baseline ΔF/F from the mean ΔF/F between 100 and 1500 sec after the stimulus.

Ptger3 = test: PGE2-induced behavior: high-salt consumption / aversive taste tolerance (gustometer lick assay); assay type: in vivo, mice
Method: Prostaglandin: PGE2 powder was diluted in DMSO at 50 mg/ml as stock. For behavioral assay, we used the final concentration of 1 mg per kg BW in PBS containing 1.7% DMSO (v/v). The same vehicle with DMSO was used as control.
All assays were performed in a custom gustometer (Dialog Instruments). All animals were at least trained with osmotic thirst and sodium depletion prior to the behavior trials. Animals were trained to drink at least 200 licks for 500 mM NaCl in 30 min under sodium depletion. Generally, two training sessions with sodium depletion are sufficient to achieve this criterion. […] To prevent this, all tastants at lower concentrations were exposed to animals before experiment. For tolerance tests, one-bottle consumption assay was used in order to avoid preference development during the session.

SFO = test: Fos immunofluorescence after subcutaneous PGE2 injection; assay type: in vivo, mice
Method: PGE2-induced behavior: PGE2 was injected subcutaneously at a dose of 1 mg per kg BW. Animals had no food or water for 15-90 min before behavioral experiments. For immunohistochemistry, PGE2 was injected at a dose of 3 mg per kg BW and maintained with no food or water for 60 min before euthanasia.
Mice were euthanized with CO2 and perfused with PBS and 4% paraformaldehyde. Extracted mouse brains were fixed overnight at 4° C. in 4% PFA and sectioned coronally to 100-μm slides via vibratome (Leica, VT-1000 S). The sections were blocked (10% donkey serum, 0.2% Triton X-100 in PBS) for 1 hr at room temperature and incubated with primary antibody at 4° C. overnight. The following primary antibodies were used: rabbit anti-FOS (1:500), sheep anti-Foxp2 (1:2,000), chicken anti-GFP (1:3,000), rat anti-mCherry (1:500), and goat anti-nNos (1:500). The sections were washed three times with PBS and incubated with the secondary antibody (1:500; Jackson Immunoresearch) and DAPI ([…]) for 4 hr under room temperature. After three times wash with PBS, the sections were mounted on the glass slide. All slides were imaged with confocal microscope (Leica, TCS SP8) or slide scanner (Olympus, BX61VS).

SFO^Ptger3 neurons [3] = test: Salt tolerance induced by SFO^Ptger3 photostimulation with or without amiloride; assay type: in vivo, mice
Method: (§1) For 5-sec brief access assay, mice were presented with 1 bottle of solution for 30 sec per trial for maximum waiting time before the first lick, and 40 sec between trials. After an initial lick, animals were allowed to drink the solution for additional 5 sec before a shutter closed. To avoid taste conditioning effect, animals were tested with only one solution per day. After testing aversive solutions, bitter and high salt, animals sometimes refused to drink any solution. These animals were retrained with water and low salt until their behavioral level recovers to our criteria stated above.
(§2) For optogenetic activation, 473-nm laser-pulse sequences were delivered via an optic cable (Doric Lenses, MFP—FC-ZF) with pulse generators (World Precision Instruments, SYS-A310 or Quantum composers, Sapphire 9200). The laser intensity was maintained at 10 mW at the tip of the fiber. […] For 5-sec brief access assay, the light stimulation was given at 20 Hz throughout the trial except the paradigm in FIG. 3C.

pre-LC^Pdyn neurons = test: High-salt licks during pre-LC^Pdyn photostimulation with or without amiloride; assay type: in vivo, mice
Method: as §1, §2

prostaglandin production = test: NSAIDs-induced loss-of-tolerance (lick number, 30 min); assay type: in vivo, mice; conditions: sodium depletion; ibuprofen 1 mg per ml drinking water three days plus aspirin 40 mg per kg BW i.p., given together
Method: NSAIDs-induced loss-of-tolerance: NSAIDs were used to suppress PGE2 production. Mice were given water supplemented with ibuprofen (1 mg per ml) for three days. On the second day, mice were injected with furosemide to induce sodium depletion. On the third day, aspirin (40 mg per kg BW) was injected intraperitoneally 1-2 hr prior to the lick access. Lick number was recorded for 30 min.

circulating PGE2 = conditions: formalin-induced inflammation
Method: Videos were taken for 1 hr following the injection and analyzed for the time mice spent licking the dorsal hindpaw. Mice with more than 30-sec licking paw time in the first 5 min after injection were used for video analysis. Each mouse was subjected to formalin injection twice: in one hind paw under sated conditions, and another under either sodium depleted or photostimulated conditions. To test the effect of optogenetic stimulation, light stimulation was given at 20 Hz with a 1-sec on 3-sec off paradigm for 60 min.
Mice were anaesthetized with isoflurane. Blood was collected via heart puncture into EDTA-coated tubes (BD Microtainer, 365974) and kept on ice. Plasma was then separated by centrifugation at 1,500 g for 20 min. ELISA assays were performed following the protocols of PGE2 ELISA kit (Cayman Chemical, 514531), serotonin ELISA kit (Eagle Bio, SER39-KO1), and progesterone ELISA kit (Cayman Chemical, 582601).

mice = conditions: thirst; formalin in dorsal hindpaw
Method: Formalin-induced tolerance: Mice were injected with formalin or PBS in the dorsal hindpaw 45-60 min prior to the lick access. Osmotic thirst was induced 10-15 min prior to the lick access. Lick number was recorded for 30 min.

For `C[N+]1([O-])CCN(C2=Nc3cc(Cl)ccc3Nc3ccccc32)CC1` [CNO, clozapine N-oxide], the “tolerance toward aversive salt (500 mM NaCl)” value (SFO/OVLT^Ptger3 neurons; hypovolemic state, hM4Di in SFO/OVLT, CNO i.p.) was “drastically suppressed tolerance”, the “solute intake (water or high salt)” value (SFO/OVLT^Ptger3 neurons; osmotic thirst, LT^Ptger3 inhibition) was “no effect” and the “tolerance of low salt with quinine or KCl” value (SFO/OVLT^Ptger3 neurons; sodium depletion, LT^Ptger3-inhibited mice) was “no longer tolerated”. The “tolerance of low salt with KCl or quinine” value (SFO/OVLT^Ptger3 neurons; sodium depletion, only SFO^Ptger3 neurons inhibited (hM4Di in SFO)) was “blunted tolerance”, the “tolerance toward aversive salt” value (SFO/OVLT^Ptger3 neurons; sodium-depleted state, hM4Di in SFO/OVLT, CNO i.p. 10 mg per kg BW) was “drastically suppressed tolerance” and the “dopamine signals in the NAc (dLight1.3b)” value ([1]; hM3Dq in SFO^Ptger3 neurons, CNO i.p. 1 mg per kg BW vs vehicle, high-salt ingestion) was “greatly enhanced”.
For `[Cl-].[Li+]` [LiCl], the “calcium response of SFO^Ptger3 neurons to control stimuli (normalized ΔF/F)” value (“calcium response … (normalized ΔF/F)” below) (SFO^Ptger3 neurons [2]) was “no activation”.
In the case of `CCCCC[C@H](O)/C=C/[C@H]1[C@H](O)CC(=O)[C@@H]1C/C=C\CCCC(=O)O` [PGE2, Prostaglandin E2], the PGE2-mediated high-salt tolerance (Ptger3; Ptger3 KD animals) was “largely abolished”, the PGE2-mediated high-salt tolerance (Ptger3; Ptger3^Cre/Cre animals) was “largely abolished” and the “salt tolerance (500 mM NaCl consumption)” value (Ptger3; osmotic thirst, wild-type or Ptger3^Cre/wt, PGE2 s.c. 1 mg per kg BW) was “increased salt tolerance”. For the same compound, the “appetite (high-salt consumption)” value (Ptger3; sated conditions, PGE2 s.c.) was “did not induce any appetite”, the “Fos immunofluorescence signals in the SFO” value (SFO; peripheral (subcutaneous) PGE2 3 mg per kg BW, Ptger3-dependent) was “strong Fos immunofluorescence signals” and the “Fos signal in the pre-LC” value (SFO; subcutaneous PGE2, scramble- and Ptger3-shRNA-injected mice) was “No Fos signal”. For the same compound, the “calcium dynamics of SFO^Ptger3 neurons (normalized ΔF/F)” value (SFO^Ptger3 neurons [2]; subcutaneous PGE2 1 mg per kg BW vs vehicle) was “time-locked calcium increases”, the “high-salt consumption during dLight recording” value ([1]; thirsty mice, subcutaneous PGE2 1 mg per kg BW) was “increased high-salt consumption” and the “dopamine release in the NAc (dLight1.3b)” value ([1]; thirsty mice, subcutaneous PGE2, 500 mM NaCl) was “enhanced dopamine release”.
In the case of `N=C(N)NC(=O)c1nc(Cl)c(N)nc1N` [amiloride], the “SFO^Ptger3-mediated salt tolerance” value (SFO^Ptger3 neurons [3]) was “no effect” and the “sodium consumption (500 mM NaCl licks) induced by pre-LC^Pdyn photostimulation” value (pre-LC^Pdyn neurons) was “no longer induced sodium consumption”.
For `CC(=O)Oc1ccccc1C(=O)O` [aspirin], the “salt tolerance (high salt)” value (prostaglandin production) was “significantly reduced salt tolerance”.
`C=O` [formalin] was tested, and the “circulating PGE2 levels” value (circulating PGE2) was “increased the PGE2 levels”, the “high salt tolerance (500 mM NaCl)” value (mice) was “partially induced high salt tolerance” and the water intake (mice) was “unaffected”.
In the case of `CC(C)Cc1ccc(C(C)C(=O)O)cc1` (stereo not shown) [ibuprofen], the “salt tolerance (high salt)” value (prostaglandin production) was “significantly reduced salt tolerance”.
`OC[C@@H](O)[C@@H](O)[C@H](O)[C@H](O)CO` [mannitol] was tested, and the “calcium response … (normalized ΔF/F)” value (SFO^Ptger3 neurons [2]) was “no activation”.
With “ghrelin (GSSFLSPEHQRVQQRKESKKPPAKLQPR; ends and bridges not checked; UniProt Q9UBU3 24-51, looked up) [control stimulus for hunger]” the “calcium response … (normalized ΔF/F)” value (SFO^Ptger3 neurons [2]) was “no activation”.
